Assay results as given in patent US10239902B2, “Stable peptide-conjugated ascorbic acid derivative, method for preparing same, and cosmetic composition comprising same” (CELLTRION INC., priority 2014, dated 2019).
Where a name gives a salt, the structure may show the parent alone.

Tests used:
[1] = system: B16F1 melanoma cell lines (ATCC CRL-6323); test: Melanin inhibitory effect in B16F1 melanoma cells; format: cell-based; conditions: for Melanin/Protein Average: 72 hours, B16F1; for Melanin/Protein EX1: replicate EX1; for Melanin/Protein EX2: replicate EX2; for Melanin/Protein EX3: replicate EX3
Protocol: B16F1 melanoma cell lines (ATCC CRL-6323) were added to a DMEM medium supplemented with 10% fetal bovine serum, 100 U/ml penicillin and 100 μg/ml streptomycin and were cultured under the condition of 37° C. and 5% CO2. After culture, the medium was replaced with DMEM medium (Invitrogen-Gibco-BRL, cells/well), and treated with a suitable amount of a sample solution such that the final concentration of each test compound reached 0 μg/ml, 10 μg/ml, 20 μg/ml or 40 μg/ml. After 72 hours, the medium was removed, and the cells were washed with PBS (phosphate buffered saline), harvested, and dried at 60° C. Next, a melanin extraction solution (1 N NaOH+10% DMSO) was added to the cells which were then lysed at 80° C. Next, the amount of melanin was quantified using synthetic melanin as a standard, and the amount of protein was quantified. The amount of melanin per unit protein was calculated, and expressed as % control value relative to a control.

[2] = system: Human neonatal dermal fibroblast cells; test: Effect on collagen activation: procollagen production in fibroblasts; format: cell-based; conditions: for Procollagen Average: 48 hours; for Procollagen Ex 1: replicate Ex 1; for Procollagen Ex 2: replicate Ex 2; for Procollagen Ex 3: replicate Ex 3
Protocol: Human neonatal dermal fibroblast cells (Cascade Co.) were seeded into a 24-well microplate (5×10^4 cells/well) with DMEM medium supplemented with 10% fetal bovine serum, and were cultured under the condition of 37° C. and 5% CO2 for 24 hours. The medium was replaced with serum-free DMEM medium, and the cells were cultured for 24 hours, and treated with each sample solution such that the final concentration of each test compound reached 1 μg/ml or 5 μg/ml. After 48 hours of culture, the cell culture medium was collected, and the amount of procollagen in the medium was measured using a collagen measurement kit (Takara Shuzo Co., Ltd., Japan). Specifically, the collected cell culture medium was added to a 96-well plate having a primary collagen antibody uniformly applied thereto, and was subjected to an antigen-antibody reaction at 37° C. for 3 hours. The cell culture medium was removed from each well which was then washed four times with PBS. A color-developing substance was added to each well and incubated at room temperature for 15 minutes, and then 1 N sulfuric acid solution was added to each well to stop the reaction. The absorbance at 450 nm was measured with a spectrophotometer. A standard curve was prepared using a standard solution, and the absorbance obtained as described above was substituted into the standard curve to thereby determine the production of procollagen in the cell culture medium in which each test compound was added.

[3] = Stability against water and heat (40° C., 75% relative humidity, HPLC); format: physicochemical; conditions: for percentage of the active ingredient relative to the initial value at day 0: 40° C., relative humidity 75%, sealed
Protocol: The stability of an active ingredient, which is used in cosmetic compositions, after water and heat, is an important factor not only in a preparation process, but also in the long-term storage of the composition. Thus, the stabilities of compounds I-1 and I-2, prepared in Examples 1 and 2, respectively, against water and heat, were measured. Specifically, each of compounds I-1 and I-2 was stored in a sealed state under the severe conditions of temperature of 40° C. and relative humidity of 75%, and the percentage of the active ingredient in each sample after 3, 7, 14 and 28 days relative to the initial value of the active value of the active ingredient at day 0 was analyzed by high-performance liquid chromatography (HPLC).

[4] = system: DNA methyltransferase (DNMT); test: Inhibition of DNA methyltransferase (DNMT) activity, Hela cell nuclear extract; format: biochemical; conditions: 0.5 μg/ml
Protocol: In order to examine the mechanism of the effect of compound I-1 on the promotion of procollagen synthesis, the inhibitory effect of the compound against DNMT activity was examined using a nuclear extract isolated from Hela cells and a DNA methyltransferase activity/inhibitor screening assay kit. To a strip coated with cystosine-rich DNA, a Hela cell nuclear extract comprising DNMT, compound I-1, and Adomet, were added. As a positive control, 5-aza-2′-deoxycytidine (5-azadC) was used. A capture antibody, which binds to methylated DNA, and a detection antibody, were sequentially added to the strip, after which a developing solution was added to induce a color developing reaction, and then a stop solution was added to stop the reaction. The absorbance at 450 nm was measured, and based on the measured absorbance, the percent inhibition of DNMT activity was calculated using the following equation 1. Inhibition %=[1−(ODinhibitor−ODblank)/(ODcontrol−[…])]×100 Equation 1

NC(N)=NCCC[C@H](N)C(=O)NCC(=O)N[C@@H](CC(=O)O)C(=O)NCCCOP(=O)(O)OC1=C(O)C([C@@H](O)CO)OC1=O (stereo partly drawn) [Compound I-2, (3S)-3-(2-((5)-2-amino-5-((diaminomethylene)amino)pentanamido)acetamido)-4-((3-((((5-((S)-1,2-dihydroxyethyl)-4-hydroxy-2-oxo-2,5-dihydrofuran-3-yl)oxy)(hydroxyl)phosphoryl)oxy)propyl)amino)-4-oxobutanoate hydrochloride]
Melanin/Protein Average ([1]; 10 μg/ml): 143.4 µg/mg
Melanin/Protein EX1 ([1]; 10 μg/ml): 133.4 µg/mg
Melanin/Protein EX2 ([1]; 10 μg/ml): 145.1 µg/mg
Melanin/Protein EX3 ([1]; 10 μg/ml): 151.7 µg/mg
Melanin/Protein Average ([1]; 20 μg/ml): 134.4 µg/mg
Melanin/Protein EX1 ([1]; 20 μg/ml): 137.9 µg/mg
Melanin/Protein EX2 ([1]; 20 μg/ml): 141.5 µg/mg
Melanin/Protein EX3 ([1]; 20 μg/ml): 123.7 µg/mg
Procollagen Average ([2]; 1 μg/ml): 253.1 ng/mL
Procollagen Ex 1 ([2]; 1 μg/ml): 252.4 ng/mL
Procollagen Ex 2 ([2]; 1 μg/ml): 243.8 ng/mL
Procollagen Ex 3 ([2]; 1 μg/ml): 263.1 ng/mL
Procollagen Average ([2]; 5 μg/ml): 302.7 ng/mL
Procollagen Ex 1 ([2]; 5 μg/ml): 298.1 ng/mL
Procollagen Ex 2 ([2]; 5 μg/ml): 301.6 ng/mL
Procollagen Ex 3 ([2]; 5 μg/ml): 308.5 ng/mL
percentage of the active ingredient relative to the initial value at day 0 ([3]; 0 day): 100%
percentage of the active ingredient relative to the initial value at day 0 ([3]; 3 days): 100.3%
percentage of the active ingredient relative to the initial value at day 0 ([3]; 7 days): 100.0%
percentage of the active ingredient relative to the initial value at day 0 ([3]; 14 days): 99.8%
percentage of the active ingredient relative to the initial value at day 0 ([3]; 28 days): 99.8%
stability under severe conditions (in words) ([3]; 28 days, compared with LAAP (Vitagen)): excellent stability comparable to that of commercially available LAAP (Vitagen)

Palmitoyl tripeptide-5 [KVK-Pal, reference compound]
Melanin/Protein Average ([1]; 10 μg/ml): 173.3 µg/mg
Melanin/Protein EX1 ([1]; 10 μg/ml): 156.9 µg/mg
Melanin/Protein EX2 ([1]; 10 μg/ml): 189.1 µg/mg
Melanin/Protein EX3 ([1]; 10 μg/ml): 173.8 µg/mg
Melanin/Protein Average ([1]; 20 μg/ml): 164.2 µg/mg
Melanin/Protein EX1 ([1]; 20 μg/ml): 151.9 µg/mg
Melanin/Protein EX2 ([1]; 20 μg/ml): 175.7 µg/mg
Melanin/Protein EX3 ([1]; 20 μg/ml): 165.1 µg/mg
Procollagen Average ([2]; 1 μg/ml): 244.4 ng/mL
Procollagen Ex 1 ([2]; 1 μg/ml): 248.9 ng/mL
Procollagen Ex 2 ([2]; 1 μg/ml): 259.7 ng/mL
Procollagen Ex 3 ([2]; 1 μg/ml): 224.7 ng/mL
Procollagen Average ([2]; 5 μg/ml): 283.6 ng/mL
Procollagen Ex 1 ([2]; 5 μg/ml): 273.9 ng/mL
Procollagen Ex 2 ([2]; 5 μg/ml): 295.5 ng/mL
Procollagen Ex 3 ([2]; 5 μg/ml): 281.3 ng/mL

NCCCOP(=O)(O)OC1=C(O)C([C@@H](O)CO)OC1=O (stereo partly drawn) [LAAP, 3-aminopropyl(5-((S)-1,2-dihydroxyethyl)-4-hydroxy-2-oxo-2,5-dihydrofuran-3-yl)hydrogen phosphate, reference compound]
Melanin/Protein Average ([1]; 10 μg/ml): 159.9 µg/mg
Melanin/Protein EX1 ([1]; 10 μg/ml): 148.2 µg/mg
Melanin/Protein EX2 ([1]; 10 μg/ml): 165.8 µg/mg
Melanin/Protein EX3 ([1]; 10 μg/ml): 165.8 µg/mg
Melanin/Protein Average ([1]; 20 μg/ml): 137.4 µg/mg
Melanin/Protein EX1 ([1]; 20 μg/ml): 132.4 µg/mg
Melanin/Protein EX2 ([1]; 20 μg/ml): 140.6 µg/mg
Melanin/Protein EX3 ([1]; 20 μg/ml): 139.1 µg/mg
Procollagen Average ([2]; 1 μg/ml): 242.3 ng/mL
Procollagen Ex 1 ([2]; 1 μg/ml): 231.4 ng/mL
Procollagen Ex 2 ([2]; 1 μg/ml): 251.3 ng/mL
Procollagen Ex 3 ([2]; 1 μg/ml): 244.1 ng/mL
Procollagen Average ([2]; 5 μg/ml): 281.1 ng/mL
Procollagen Ex 1 ([2]; 5 μg/ml): 268.1 ng/mL
Procollagen Ex 2 ([2]; 5 μg/ml): 276.1 ng/mL
Procollagen Ex 3 ([2]; 5 μg/ml): 299.1 ng/mL
percentage of the active ingredient relative to the initial value at day 0 ([3]; 0 day): 100%
percentage of the active ingredient relative to the initial value at day 0 ([3]; 3 days): 100.4%
percentage of the active ingredient relative to the initial value at day 0 ([3]; 7 days): 100.9%
percentage of the active ingredient relative to the initial value at day 0 ([3]; 14 days): 99.9%
percentage of the active ingredient relative to the initial value at day 0 ([3]; 28 days): 98.5%

Nc1ncn([C@H]2C[C@H](O)[C@@H](CO)O2)c(=O)n1 [Compound 5-azadC, 5-aza-2′-deoxycytidine, reference compound]
Inhibition % Average [4]: 78%
Inhibition % Ex 1 ([4]; replicate Ex 1): 88%
Inhibition % Ex 2 ([4]; replicate Ex 2): 91%
Inhibition % Ex 3 ([4]; replicate Ex 3): 60%
Inhibition % Ex 4 ([4]; replicate Ex 4): 57%
Inhibition % Ex 5 ([4]; replicate Ex 5): 88%
Inhibition % Ex 6 ([4]; replicate Ex 6): 85%
